In patent publication US10294273B2, “Macrocyclic peptidomimetics for alpha-helix mimicry” (UNIVERSITY OF ROCHESTER, priority 2014, dated 2019):

What was measured:
[1] = tested on: SJSA-1 cells; experiment: Cell viability (MTT) assay in SJSA-1 osteosarcoma cells; assay type: cell-based, human; conditions: overnight treatment
Description: The cytotoxic activity of the macrocyclic peptidomimetic molecules is determined, for example, in cell-based assays using tumorigenic and non-tumorigenic cell lines and primary cells derived from human or mouse cell populations. […]. Such assays can be used to assess the efficacy of the macrocyclic peptidomimetic molecules to reduce the viability of tumorigenic and non-tumorigenic cells. In addition, assays that measure Annexin V and caspase activation can be optionally used to assess whether the cytotoxicity of the macrocyclic peptidomimetic molecules is dependent upon activation of the apoptotic machinery, which is expected to result from reactivation of p53 activity.
Similar results were obtained for other p53 macrocyclic peptidomimetic molecules described in FIG. 10, resulting in LD50 in the low micromolar range.
Cultured SJSA-1 cells were maintained in the RPMI-1640 medium supplemented with 10% fetal bovine serum. For viability evaluation cells were seated in 96-well, tissue culture treated plates (2×10^4 cells/well) and incubated overnight. […] The cells were treated overnight and the viability was assessed by a standard MTT (3-(4,5-dimethylthiazol-2-yl)-2,5-diphenyltetrazolium bromide) assay. The viability is expressed as percentage of viability of the non-treated cells.

[2] = biological target: T1, HDMX (Homo sapiens, UniProt O15151); experiment: SPR inhibition assay, disruption of p53(15-29)-HDMX interaction; assay type: binding; conditions: selectivity ratio between the two protein homologs
T1 construct: His tag (C); made in house; host or cells: E. coli BL21(DE3)
T1 sequence (O15151 1-109): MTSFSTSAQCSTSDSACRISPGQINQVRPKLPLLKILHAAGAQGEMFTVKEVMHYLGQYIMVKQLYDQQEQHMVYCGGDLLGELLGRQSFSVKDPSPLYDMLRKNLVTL
Excerpt: The ability of the macrocyclic peptidomimetic molecules to bind a protein of interest and disrupt a target protein-protein interaction can be assessed, for example, via in vitro surface plasmon resonance (SPR)-based inhibition assays. For example, the ability of these compounds to inhibit the interaction of p53 with oncoprotein HDM2 and HDMX can be measured via an in-solution inhibition assay, in which a biotinylated p53-derived peptide (e.g., biotin-SGSG-p5315-29) is first immobilized on a streptavidin-coated biosensor chip. Soluble HDM2 (or HDMX) is then incubated with varying concentrations of the macrocycle and the mixture is then injected over the functionalized surface. With increasing concentrations of the inhibitor, binding of HDM2 (or HDMX) to the surface is inhibited, leading to a decrease in biosensor response. The response-concentration curves can be then analyzed to measure the inhibitory activity of the compounds in terms of half-maximal inhibitory concentration (IC50).
Briefly, biotin-conjugated […] peptide was first immobilized on a streptavidin-coated biosensor chip and increasing concentrations of the inhibitors were added to a fixed concentration of HDM2 or HDMX. From the corresponding dose-response curves (FIGS. 12A-12B), half-maximal inhibitory concentrations (IC50) were determined for the compounds as summarized in FIG. 10. […]

[3] = Circular dichroism analysis of α-helicity; conditions: 5 mM potassium phosphate pH 7.0, 40% trifluoroethanol
Description: The alpha helical content of the macrocyclic peptidomimetic molecules and reference non-macrocyclic compounds disclosed herein can be determined by Circular Dichroism (CD) spectroscopy.
CD spectra were recorded with a JASCO J-710 CD spectropolarimeter using a 0.1 cm path length cuvette at room temperature. The purified peptides were dissolved in 5 mM potassium phosphate buffer (pH 7.0) containing 40% trifluoroethanol to a final concentration of 20-50 μM. […] The bandwidth was set to 2.0 nm and the sensitivity of the spectrometer set to 100 mdeg.

[4] = tested on: p53(15-29)-HDM2 interaction; experiment: HDM2 IC50 (nM)
Excerpt: (§1) Table printed on a drawing sheet, FIG. 10
Head of the field: HDM2 IC50 (nM)
(§2) The patent's description of the figure: FIG. 10. Amino acid sequence, structure, and inhibitory activity of selected p53 macrocyclic peptidomimetics and reference linear peptides. The inhibitory activities refer to IC50 values for disruption of p53(15-29)-HDM2 interaction or p53(15-29)-HDMX interaction as determined using a Surface Plasmon Resonance-based inhibition assay.
(§3) First copying reader's note: In cyclic peptides the linker name (SP4, SP6, SP8, SP9) is printed above the sequence inside a bracket running from the pAcF/mAcF residue to the C-terminus; it is given here before the sequence.
(§4) Where the first naming reader finds the target: description_of_the_figure: IC50 values for disruption of p53(15-29)-HDM2 interaction or p53(15-29)-HDMX interaction

[5] = tested on: p53(15-29)-HDMX interaction; experiment: HDMX IC50 (nM)
Excerpt: as §1
Head of the field: HDMX IC50 (nM)
as §2, §3, §4

[6] = biological target: chymotrypsin (Bos taurus, UniProt P00766); experiment: Proteolytic stability in the presence of chymotrypsin (HPLC); conditions: chymotrypsin 1.0 μg/mL, peptide 10 μM
Description: This property can be assessed by incubating the macrocyclic peptidomimetic molecules and the corresponding reference non-macrocyclic polypeptides in the presence of purified proteases or, alternatively, human blood serum. The in vitro proteolytic degradation of the compounds can be then monitored over time by HPLC equipped with a UV detector. From the resulting time-dependent curves, the half-life of the compounds can be measured. As an example, the in vitro proteolytic stability of macrocycles was measured by incubating the compound (10 μM) in 50 mM potassium phosphate buffer (pH 7.5) in the presence of chymotrypsin (1.0 μg/mL) at room temperature. At different time points (e.g. 0, 30, 60, 120, 180, 240 min), an aliquot of the reaction mixture (50 μL) was removed, quenched addition of TFA (5 μL) followed by HPLC analysis. Peptide cleavage was monitored based on the decrease of the peak area corresponding to the integer peptide.
Each peptide (10 μM) was dissolved in 50 mM potassium phosphate buffer (pH 7.5) containing 150 mM NaCl and 10% DMSO. Chymotrypsin (Sigma-Aldrich) was added to a final concentration of 1.0 μg/mL and incubated at room temperature. At each time point, a 50 μL aliquot of the mixture was removed, quenched by TFA addition (5 μL) followed by HPLC analysis. Peptide cleavage was monitored based on the decrease of the peak area corresponding to the integer peptide. […]

[7] = tested on: HEK-293 cells; experiment: Cell penetration by confocal fluorescence microscopy; assay type: cell-based, human; conditions: fluorescein-conjugated compound, 20 μM, 2 h
Description: In some embodiments, the macrocyclic peptidomimetics described herein are more cell permeable than a corresponding non-macrocyclic counterpart. […] To measure the cell permeability of these compounds, intact cells are incubated with fluorescently labeled (e.g. fluorescein-conjugated) macrocyclic peptidomimetic molecule or corresponding non-macrocyclic counterpart (10 μM) for 4 hrs in serum free media at 37° C. Cells are then washed twice with media, incubated with trypsin (e.g. 0.25% trypsin, 10 min, 37° C.), then washed again and resuspended in PBS. Cellular fluorescence is analyzed, for example, by using a FACSCalibur flow cytometer. Alternatively, the ability of the fluorescently labelled compound to penetrate cells can be assessed by confocal fluorescence microscopy.
Similar results were obtained for other p53 macrocyclic peptidomimetic molecules described in FIG. 10.
The cell permeability properties of the macrocyclic peptidomimetics and reference linear peptides were assessed using HEK-293 cell line. These cells were cultured in the DMEM medium supplemented with 10% fetal bovine serum and penicillin/streptomycin. For the cell permeability evaluations, cells were seated overnight (1×10^4 cells/well) in 24-well tissue culture treated plates with glass bottom. […]

Molecule	viability of SJSA-1 cells upon treatment [1]	α-helical content [3]	IC50 [4] [nM]	IC50 [5] [nM]	survival of incubation with the protease, up to [6]	other results
COc1ccc(C2=N[C@@H](c3ccc(Cl)cc3)[C@@H](c3ccc(Cl)cc3)N2C(=O)N2CCNC(=O)C2)c(OC(C)C)c1 [nutlin-3]	responsiveness of the cells to p53-HDM2 inhibition was confirmed					
P6: unconstrained reference linear peptide (SEQ ID NO. 44), acyclic counterpart of P7 and P8 (GYSFAEYWNLLA; Engineered Sequence) [reference compound]		about 31%				IC50(HDMX)/IC50(HDM2) [2]: 5.5
CC1=NOCc2ccc(CS)c(c2)NC(=O)[C@H](C)NC(=O)[C@H](CC(C)C)NC(=O)[C@H](CC(C)C)NC(=O)[C@H](CC(N)=O)NC(=O)[C@H](Cc2c[nH]c3ccccc23)NC(=O)[C@H](Cc2ccc(O)cc2)NC(=O)[C@H](CCC(=O)O)NC(=O)[C@H](C)NC(=O)[C@H](Cc2ccccc2)NC(=O)[C@H](CO)NC(=O)[C@@H](NC(=O)CN)Cc2ccc1cc2 [P9]			> 50000	> 50000		
P6: unconstrained reference linear peptide (SEQ ID NO. 44), acyclic counterpart of P7 and P8 (GYSFAEYWNLLA; Engineered Sequence)			65	355		
CC1=NOCc2cn(nn2)Cc2ccc(CSCC(N)=O)c(c2)NC(=O)[C@H](C)NC(=O)[C@H](CC(C)C)NC(=O)[C@H](CC(C)C)NC(=O)[C@H](CC(N)=O)NC(=O)[C@H](Cc2c[nH]c3ccccc23)NC(=O)[C@H](Cc2ccc(O)cc2)NC(=O)[C@H](CCC(=O)O)NC(=O)[C@H](C)NC(=O)[C@H](Cc2ccccc2)NC(=O)[C@H](CO)NC(=O)[C@@H](NC(=O)CN)Cc2ccc1cc2 [P7]		40%			up to 3 hour	
CC1=NOCCCNC(=O)c2ccc(CSCC(N)=O)c(c2)NC(=O)[C@H](C)NC(=O)[C@H](CC(C)C)NC(=O)[C@H](CC(C)C)NC(=O)[C@H](CC(N)=O)NC(=O)[C@H](Cc2c[nH]c3ccccc23)NC(=O)[C@H](Cc2ccc(O)cc2)NC(=O)[C@H](CCC(=O)O)NC(=O)[C@H](C)NC(=O)[C@H](Cc2ccccc2)NC(=O)[C@H](CO)NC(=O)[C@@H](NC(=O)CN)Cc2ccc1cc2 [P8]	a reduction of cell viability	21%			≤ 4 h	cellular uptake (confocal fluorescence microscopy) [7]: diffuse fluorescence at the intracellular level
